Assay results reported in patent publication US20180049998A1, “Naphthoquinone Compounds and Methods for Preparing the Same” (priority 2016, published 2018).

- melting point: 96 °C
SMILES: CCOC(=O)C(C)(CCC1=C(C)C(=O)c2ccccc2C1=O)C(=O)OCC
